# From patent US20220009920A1 (GB005, Inc., priority 2020, published 2022)
# Tests used:
# BTK = target: T1, BTK (Homo sapiens, UniProt Q06187); assay: Assay to determine activity against BTK; type: biochemical; details: 1 mM ATP, 2 nM BTK, 90 minutes at room temperature
# T1 construct: purchased Cama
# Method: Solutions of compounds (test or control) in DMSO were prepared at the desired concentrations, and serially diluted to 11 concentrations by 3-fold dilution in 384pp-plate using TECAN EVO200. 20 nL of stock were transferred to 384 plate using Echo550. DMSO was used as vehicle control.
# (BTK was obtained from Cama; FLPeptide2 was obtained from PerkinElmer and Ibrutinib was obtained from Selleck.) 5 μL of ATP solution were added to each well, followed by addition of 15 μL of BTK solution to initiate the reaction. (Note the final volume of each well was 20 μL containing MgCl2 (10 mM), Brij-35 (0.01%), DTT (2 mM), BSA (0.05%), EGTA (1 mM), HEPE (pH7.5) (50 mM), FLPeptide (1.5 uM), ATP (1 mM) and BTK (2 nM).
# The plates were incubated at room temperature for 90 minutes and then stopping buffer added (75 μL, containing 0.5 M EDTA) to terminate the reaction. Samples from each well were analyzed using EZ reader. The % remaining activity was calculated using read conversion ratio (CR) according to the equation: […]
# XLFit (equation 201) was used to calculate IC50's by floating both bottom and top.
# BTK in RAMOS B cells = assay: Assay to determine BTK activity in RAMOS B cells (anti-IgM, FLIPR Calcium 6); type: cell-based; details: anti-IgM EC80, calcium readout
# Method: On the day before assay, Ramos B cells were plated in plating medium (RPMI1640 medium containing 1% FBS and 1× pencillin-streptomycin). On the day of the assay, 2× dye solution was prepared following the manual of the FLIRP Calcium 6 Assay Kit: Dilute the dye with assay buffer (20 mM HEPES in IX HBSS, pH7.4); Add probenecid to the final concentration of 5 mM; vortex vigorously for 1-2 minutes. Cells were collected by centrifuging, and the pellet was re-suspended in plating medium. After counting, cells were re-suspended at a density of 3×10^6/ml in plating medium. Equal volume of 2× dye solution was added to the cell suspension. Cells were then plated at 20 μl/well into a 384-well poly-D-lysine coated plate. Plate was centrifuged at 1000 rpm for 3 minutes and then incubated at 37° C. for 2 hours followed by an additional 15-minute incubation at 25° C. Compounds were prepared at 3× concentration in dilution buffer (20 mM HEPES and 0.1% BSA in 1×HBSS, pH 7.4). Serially diluted compound was transferred from source plate to a 384-well compound plate by using an Echo 550 (Labcyte). 20 μl/well compound dilution buffer was added to the compound plate and mixed on plate shaker for 2 mins. 4× EC80 of Anti-IgM (Jackson ImmunoResearch) was prepared in dilution buffer and 20 μl/well was added to a new 384-well compound plate. After 60 mins of incubation at 25° C. in the dark; cell plate, compound plate containing 4×EC80 of anti-IgM and FLIPR tips were placed into FLIPR (Molecular Devices). 10 ul/well of 4×EC80 anti-IgM was transferred to the cell plate by FLIPR. Plates were read for 160 sec with 1 sec interval.
# T1 sequence (Q06187 whole entry): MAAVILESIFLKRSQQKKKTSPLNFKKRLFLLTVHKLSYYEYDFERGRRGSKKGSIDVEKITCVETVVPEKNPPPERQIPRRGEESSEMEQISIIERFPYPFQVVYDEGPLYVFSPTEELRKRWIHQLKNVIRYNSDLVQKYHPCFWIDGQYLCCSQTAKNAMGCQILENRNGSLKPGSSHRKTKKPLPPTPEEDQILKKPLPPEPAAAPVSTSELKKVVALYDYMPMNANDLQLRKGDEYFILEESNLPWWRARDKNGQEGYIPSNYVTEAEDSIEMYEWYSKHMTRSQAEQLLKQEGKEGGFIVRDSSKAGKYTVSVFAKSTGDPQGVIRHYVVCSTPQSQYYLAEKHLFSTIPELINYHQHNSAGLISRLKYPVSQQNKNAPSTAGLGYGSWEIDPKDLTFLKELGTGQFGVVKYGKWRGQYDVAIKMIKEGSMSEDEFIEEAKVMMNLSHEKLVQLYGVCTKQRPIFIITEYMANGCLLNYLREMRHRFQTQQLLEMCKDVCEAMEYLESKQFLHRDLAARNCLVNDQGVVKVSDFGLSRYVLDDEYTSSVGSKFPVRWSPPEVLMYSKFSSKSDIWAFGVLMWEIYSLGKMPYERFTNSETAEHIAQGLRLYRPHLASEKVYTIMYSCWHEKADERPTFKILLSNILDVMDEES
Structure (SMILES),IC50 (BTK) [nM],"IC50 (BTK in RAMOS B cells; Homo sapiens, Ramos) [nM]",IC50 (BTK in RAMOS B cells) [nM]
"C=CC(=O)N1CCc2c(cccc2-c2c(F)cc(C(N)=O)c3[nH]c4c(c23)CC2(CCCC2)CC4)C1 [Compound 7-14, 5-(2-acryloyl-1,2,3,4-tetrahydroisoquinolin-5-yl)-6-fluoro-1,2,4,9-tetrahydrospiro[carbazole-3,1′-cyclopentane]-8-carboxamide]",≥ 100,≥ 100,
"C=CC(=O)N1CCc2c(cccc2-c2ncc(C(N)=O)c3[nH]c4c(c23)CCCC4)C1 [Compound 3-1, 1-(2-acryloyl-1,2,3,4-tetrahydroisoquinolin-5-yl)-6,7,8,9-tetrahydro-5H-pyrido[4,3-b]indole-4-carboxamide]",< 10,< 10,
"C=CC(=O)N1CCc2c(-c3c(F)cc(C(N)=O)c4[nH]c5c(c34)CC3(CC5)CC3)cccc2[C@@H]1C (atropisomer, axis not shown) [Compound 7-21, (R)-5-((S)-2-acryloyl-1-methyl-1,2,3,4-tetrahydroisoquinolin-5-yl)-6-fluoro-1,2,4,9-tetrahydrospiro[carbazole-3,1′-cyclopropane]-8-carboxamide]",< 10,10 to 100,
"C=CC(=O)N1CCCC(c2c(F)cc(C(N)=O)c3[nH]c4c(c23)CCCCC4)C1 (racemic) [Compound 5-5, 1-(1-acryloylpiperidin-3-yl)-2-fluoro-5,6,7,8,9,10-hexahydrocyclohepta[b]indole-4-carboxamide]",10 to 100,10 to 100,
"C=CC(=O)N1CCc2c(cccc2-c2c(F)cc(C(N)=O)c3[nH]c4c(c23)CS(=O)(=O)CC4)C1 (single isomer, unassigned) [Compound 9-3, 9-(2-acryloyl-1,2,3,4-tetrahydroisoquinolin-5-yl)-8-fluoro-1,3,4,5-tetrahydrothiopyrano[4,3-b]indole-6-carboxamide 2,2-dioxide]",< 10,,10 to 100
"C=CC(=O)N1CCC=C(c2ccc(C(N)=O)c3[nH]c4c(c23)C[Si](C)(C)CC4)C1 [Compound 9-7, 9-(1-acryloyl-1,2,5,6-tetrahydropyridin-3-yl)-2,2-dimethyl-2,3,4,5-tetrahydro-1H-silino[4,3-b]indole-6-carboxamide]",< 10,10 to 100,
"C=CC(=O)N1CCc2c(cccc2-c2c(F)cc(C(N)=O)c3[nH]c4c(c23)CC2(CCOCC2)CC4)C1 [Compound 7-19, 5-(2-acryloyl-1,2,3,4-tetrahydroisoquinolin-5-yl)-6-fluoro-1,2,2′,3′,4,5′,6′,9-octahydrospiro[carbazole-3,4′-pyran]-8-carboxamide]",10 to 100,≥ 100,
"CC#CC(=O)N[C@H]1CCC=C(c2c(F)cc(C(N)=O)c3[nH]c4c(c23)CCC4)C1 [Compound 10-4, 8-[(5S)-5-(but-2-ynoylamino)cyclohexen-1-yl]-7-fluoro-1,2,3,4-tetrahydrocyclopenta[b]indole-5-carboxamide]",< 10,< 10,
"C=CC(=O)N1CCc2c(cccc2-c2c(F)cc(C(N)=O)c3[nH]c4c(c23)CS(=O)(=O)CC4)C1 (single isomer, unassigned) [Compound 9-4, 9-(2-acryloyl-1,2,3,4-tetrahydroisoquinolin-5-yl)-8-fluoro-1,3,4,5-tetrahydrothiopyrano[4,3-b]indole-6-carboxamide 2,2-dioxide]",≥ 100,,≥ 100
"C=CC(=O)N1CCc2c(cccc2-c2c(F)cc(C(N)=O)c3[nH]c4c(c23)CCN(C)CC4)C1 [Compound 9-6, 10-(2-acryloyl-1,2,3,4-tetrahydroisoquinolin-5-yl)-9-fluoro-3-methyl-1,2,3,4,5,6-hexahydroazepino[4,5-b]indole-7-carboxamide]",10 to 100,10 to 100,
"C=CC(=O)N1CCc2c(cccc2-c2c(C)nc(C(N)=O)c3[nH]c4c(c23)CC2(CC4)CC2)C1 [Compound 7-26, 4′-(2-acryloyl-1,2,3,4-tetrahydroisoquinolin-5-yl)-3′-methyl-5′,7′,8′,9′-tetrahydrospiro[cyclopropane-1,6′-pyrido[3,4-b]indole]-1′-carboxamide]",≥ 100,≥ 100,
"CC#CC(=O)N[C@H]1CCCC(c2c(F)cc(C(N)=O)c3[nH]c4c(c23)CCC4)C1 (single isomer, unassigned) [Compound 10-6]",10 to 100,,≥ 100
"C=CC(=O)N1CC[C@@H]2CCN(c3c(F)cc(C(N)=O)c4[nH]c5c(c34)CCCCC5)C[C@@H]21 [Compound 4-2, 1-((3aS,7aR)-1-acryloyloctahydro-6H-pyrrolo[2,3-c]pyridin-6-yl)-2-fluoro-5,6,7,8,9,10-hexahydrocyclohepta[b]indole-4-carboxamide]",≥ 100,≥ 100,
"C=CC(=O)N1CCc2c(cccc2-c2ccc(C(N)=O)c3[nH]c4c(c23)CC2(CCC2)CC4)C1 [Compound 7-4, 5-(2-acryloyl-1,2,3,4-tetrahydroisoquinolin-5-yl)-1,2,4,9-tetrahydrospiro[carbazole-3,1′-cyclobutane]-8-carboxamide]",≥ 100,≥ 100,
"C=CC(=O)N1CCc2c(cccc2-c2c(F)cc(C(N)=O)c3[nH]c4c(c23)CC2(CC4)CC2)C1 [Compound 7-25, 5-(2-acryloyl-1,2,3,4-tetrahydroisoquinolin-5-yl)-6-fluoro-1,2,4,9-tetrahydrospiro[carbazole-3,1′-cyclopropane]-8-carboxamide]",≥ 100,,≥ 100
"CC#CC(=O)N[C@H]1C[C@H](F)CN(c2c(F)cc(C(N)=O)c3[nH]c4c(c23)CC2(CC4)CC2)C1 [Compound 7-23, 5-((3S,5S)-3-(but-2-ynamido)-5-fluoropiperidin-1-yl)-6-fluoro-1,2,4,9-tetrahydrospiro[carbazole-3,1′-cyclopropane]-8-carboxamide]",< 10,< 10,
"C=CC(=O)N1CCc2c(cccc2-c2c(C)nc(C(N)=O)c3[nH]c4c(c23)CCCC4)C1 (single isomer, unassigned) [Compound 2-7, 4-(2-acryloyl-1,2,3,4-tetrahydroisoquinolin-5-yl)-3-methyl-6,7,8,9-tetrahydro-5H-pyrido[3,4-b]indole-1-carboxamide]",≥ 100,,≥ 100
"C=CC(=O)N1CCCC(c2cnc(C(N)=O)c3[nH]c4c(c23)CCCC4)C1 (stereo not drawn) [Compound 1-1, 4-(1-acryloylpiperidin-3-yl)-6,7,8,9-tetrahydro-5H-pyrido[3,4-b]indole-1-carboxamide]",10 to 100,10 to 100,
"CC#CC(=O)N(C)[C@H]1CCCN(c2c(F)cc(C(N)=O)c3[nH]c4c(c23)CCC4)C1 [Compound 10-7, 8-[(3S)-3-[but-2-ynoyl(methyl)amino]-1-piperidyl]-7-fluoro-1,2,3,4-tetrahydrocyclopenta[b]indole-5-carboxamide]",< 10,10 to 100,
"C=CC(=O)N1CCc2c(cccc2-c2c(F)cc(C(N)=O)c3[nH]c4c(c23)CC2(CC4)CC2)C1 [Compound 7-12, 5-(2-acryloyl-1,2,3,4-tetrahydroisoquinolin-5-yl)-6-fluoro-1,2,4,9-tetrahydrospiro[carbazole-3,1′-cyclopropane]-8-carboxamide]",< 10,,10 to 100
C=CC(=O)N1CCC=C(c2cnc(C(N)=O)c3[nH]c4c(c23)CCCC4)C1 [Compound 2-2],10 to 100,10 to 100,
